target: T1, active p38 alpha enzyme (Upstate Biotechnology) (Homo sapiens, UniProt Q16539); experiment: p38α biochemical assay (ATP turnover, luminescent detection, Cambrex PKlight); details: p38α kinase; Table 1 Biological Activity
T1 construct: purchased Upstate Biotechnology
Outline: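 Compounds in DMSO are added to active p38 alpha with MapkapK2 whole protein and ATP at 1.4 uM final. Reactions then run for 2 hours at 30C. A luminescent reagent is added last to quantify total ATP consumed.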

T1 sequence (Q16539 whole entry): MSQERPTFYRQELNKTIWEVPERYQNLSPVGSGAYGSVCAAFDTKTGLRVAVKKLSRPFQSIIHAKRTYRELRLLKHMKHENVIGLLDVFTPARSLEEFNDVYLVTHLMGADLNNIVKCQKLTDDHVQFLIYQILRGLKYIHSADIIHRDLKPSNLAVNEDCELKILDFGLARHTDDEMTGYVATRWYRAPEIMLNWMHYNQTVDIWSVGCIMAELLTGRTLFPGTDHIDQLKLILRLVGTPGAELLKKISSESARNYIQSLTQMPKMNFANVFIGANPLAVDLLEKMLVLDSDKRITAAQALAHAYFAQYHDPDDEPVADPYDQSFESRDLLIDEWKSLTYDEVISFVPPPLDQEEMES

IC50, > 1000 nM:
CC(C)NC(=O)c1csc(-c2oc(CN3CCCCC3CCO)nc2-c2ccc(F)cc2)n1 (stereo not drawn) [Example 1223]
CC(C)NC(=O)c1csc(-c2oc(CN3CCc4ccccc4C3)nc2-c2ccc(F)cc2)n1 [Example 1224]
CCN(Cc1ccccc1)Cc1nc(-c2ccc(F)cc2)c(-c2nc(C(=O)NC(C)C)cs2)o1 [Example 1225]
CC(C)NC(=O)c1csc(-c2oc(CN(C)CCc3ccccc3)nc2-c2ccc(F)cc2)n1 [Example 1227]
CC(C)NC(=O)c1csc(-c2oc(CN(C)CCc3ccccn3)nc2-c2ccc(F)cc2)n1 [Example 1228]
CC(C)NC(=O)c1csc(-c2oc(CN3CCCC4CCCCC43)nc2-c2ccc(F)cc2)n1 (stereo not drawn) [Example 1230]
C=CCN(Cc1nc(-c2ccc(F)cc2)c(-c2nc(C(=O)NC(C)C)cs2)o1)C1CCCCC1 [Example 1231]
COC(=O)C1CCN(Cc2nc(-c3ccc(F)cc3)c(-c3nc(C(=O)NC(C)C)cs3)o2)CC1 [Example 1232]
CC(C)NC(=O)c1csc(-c2oc(CN(Cc3ccccc3)C(C)C)nc2-c2ccc(F)cc2)n1 [Example 1233]
CC(C)NC(=O)c1csc(-c2oc(CN(CCO)Cc3ccccc3)nc2-c2ccc(F)cc2)n1 [Example 1234]
CC(C)NC(=O)c1csc(-c2oc(CN(C)CC(O)c3ccccc3)nc2-c2ccc(F)cc2)n1 (stereo not drawn) [Example 1235]
CC(C)NC(=O)c1csc(-c2oc(CN3CCC(O)(O)CC3)nc2-c2ccc(F)cc2)n1 [Example 1236]
CCOC(=O)C1CCN(Cc2nc(-c3ccc(F)cc3)c(-c3nc(C(=O)NC(C)C)cs3)o2)CC1 [Example 1237]
CCOC(=O)C1CCCN(Cc2nc(-c3ccc(F)cc3)c(-c3nc(C(=O)NC(C)C)cs3)o2)C1 (stereo not drawn) [Example 1238]
CCOC(=O)N1CCN(Cc2nc(-c3ccc(F)cc3)c(-c3nc(C(=O)NC(C)C)cs3)o2)CC1 [Example 1239]
CC(C)NC(=O)c1csc(-c2oc(CN(CCC#N)Cc3cccnc3)nc2-c2ccc(F)cc2)n1 [Example 1240]
CC(C)NC(=O)c1csc(-c2oc(CN3CCN(c4ccccc4)CC3)nc2-c2ccc(F)cc2)n1 [Example 1241]
CC(C)NC(=O)c1csc(-c2oc(CN3CCN(c4ccccn4)CC3)nc2-c2ccc(F)cc2)n1 [Example 1242]
CCCCN(Cc1ccccc1)Cc1nc(-c2ccc(F)cc2)c(-c2nc(C(=O)NC(C)C)cs2)o1 [Example 1243]
CC(C)NC(=O)c1csc(-c2oc(CN(CCO)[C@H](C)c3ccccc3)nc2-c2ccc(F)cc2)n1 [Example 1244]
CC(C)NC(=O)c1csc(-c2oc(CN(CCCO)Cc3ccccn3)nc2-c2ccc(F)cc2)n1 [Example 1245]
CC(C)NC(=O)c1csc(-c2oc(CN(C)CC(O)c3ccc(O)cc3)nc2-c2ccc(F)cc2)n1 (stereo not drawn) [Example 1246]
CC(C)NC(=O)c1csc(-c2oc(CN3CCN(C4CCCCC4)CC3)nc2-c2ccc(F)cc2)n1 [Example 1247]
CC(C)NC(=O)c1csc(-c2oc(CN3CCC(Cc4ccccc4)CC3)nc2-c2ccc(F)cc2)n1 [Example 1248]
CC(C)NC(=O)c1csc(-c2oc(CN3CCN(Cc4ccccc4)CC3)nc2-c2ccc(F)cc2)n1 [Example 1249]
CC(C)NC(=O)c1csc(-c2oc(CN3CCCN(Cc4ccccc4)CC3)nc2-c2ccc(F)cc2)n1 [Example 1250]
CC(C)NC(=O)c1csc(-c2oc(CN3CCN(c4ccc(O)cc4)CC3)nc2-c2ccc(F)cc2)n1 [Example 1251]
CC(C)NC(=O)c1csc(-c2oc(CN(CCN(C)C)Cc3ccccc3)nc2-c2ccc(F)cc2)n1 [Example 1252]
CC(C)NC(=O)c1csc(-c2oc(CN3CCN(c4ccccc4F)CC3)nc2-c2ccc(F)cc2)n1 [Example 1253]
CC(C)NC(=O)c1csc(-c2oc(CN3CCN(c4ccc(F)cc4)CC3)nc2-c2ccc(F)cc2)n1 [Example 1254]
CC(C)NC(=O)c1csc(-c2oc(CN3CCN(CC4CCCCC4)CC3)nc2-c2ccc(F)cc2)n1 [Example 1255]
CC(C)NC(=O)c1csc(-c2oc(CN(C)C[C@H](O)c3ccc(O)c(O)c3)nc2-c2ccc(F)cc2)n1 [Example 1256]
CCOC(=O)CC1C(=O)NCCN1Cc1nc(-c2ccc(F)cc2)c(-c2nc(C(=O)NC(C)C)cs2)o1 (stereo not drawn) [Example 1257]
CC(C)NC(=O)c1csc(-c2oc(CN3CCN(C(=O)OC(C)(C)C)CC3)nc2-c2ccc(F)cc2)n1 [Example 1258]
CC(C)NC(=O)c1csc(-c2oc(CN3CCC(NC(=O)OC(C)(C)C)C3)nc2-c2ccc(F)cc2)n1 (stereo not drawn) [Example 1259]
CC(C)NC(=O)c1csc(-c2oc(CN3CCN(c4ccccc4C#N)CC3)nc2-c2ccc(F)cc2)n1 [Example 1260]
CC(C)NC(=O)c1csc(-c2oc(CN3CCN(c4ccc(C#N)cn4)CC3)nc2-c2ccc(F)cc2)n1 [Example 1261]
Cc1cccc(N2CCN(Cc3nc(-c4ccc(F)cc4)c(-c4nc(C(=O)NC(C)C)cs4)o3)CC2)c1C [Example 1262]
Cc1cccc(N2CCN(Cc3nc(-c4ccc(F)cc4)c(-c4nc(C(=O)NC(C)C)cs4)o3)CC2C)c1 (stereo not drawn) [Example 1264]
CC(C)NC(=O)c1csc(-c2oc(CN3CCN(CCc4ccccc4)CC3)nc2-c2ccc(F)cc2)n1 [Example 1265]
Cc1ccc(N2CCN(Cc3nc(-c4ccc(F)cc4)c(-c4nc(C(=O)NC(C)C)cs4)o3)CC2)cc1C [Example 1266]
Cc1ccc(N2CCN(Cc3nc(-c4ccc(F)cc4)c(-c4nc(C(=O)NC(C)C)cs4)o3)CC2)c(C)c1 [Example 1267]
Cc1ccc(C)c(N2CCN(Cc3nc(-c4ccc(F)cc4)c(-c4nc(C(=O)NC(C)C)cs4)o3)CC2)c1 [Example 1268]
COc1ccc(N2CCN(Cc3nc(-c4ccc(F)cc4)c(-c4nc(C(=O)NC(C)C)cs4)o3)CC2)cc1 [Example 1269]
COc1ccccc1N1CCN(Cc2nc(-c3ccc(F)cc3)c(-c3nc(C(=O)NC(C)C)cs3)o2)CC1 [Example 1270]
COc1cccc(N2CCN(Cc3nc(-c4ccc(F)cc4)c(-c4nc(C(=O)NC(C)C)cs4)o3)CC2)c1 [Example 1271]
COc1ccc(CCN(C)Cc2nc(-c3ccc(F)cc3)c(-c3nc(C(=O)NC(C)C)cs3)o2)cc1OC [Example 1272]
CC(C)NC(=O)c1csc(-c2oc(CN3CCN(c4cccc(Cl)c4)CC3)nc2-c2ccc(F)cc2)n1 [Example 1273]
